Paper PMC6478789, “A chemical toolbox for the study of bromodomains and epigenetic signaling” (Nature Communications, 2019)

Tests used:
[1] = target: SMARCA4 (Homo sapiens, UniProt P51532); assay: BROMOscan ligand-binding assay; conditions: SMARCA4
Description: (§3) BROMOscan is a binding assay based on the well-known KINOMEscan technology. This assay measures the binding of a DNA-tagged bromodomain to an immobilized BRD ligand. If an inhibitor is present, it will compete with the bromodomain binding to the immobilized ligand, resulting in reduction of a quantitative PCR (qPCR) signal in a dose-dependent manner.

[2] = target: T1, TRIM24 (Homo sapiens, UniProt O15164); assay: BROMOscan ligand-binding assay
T1 sequence (O15164 899-1004 limits assumed): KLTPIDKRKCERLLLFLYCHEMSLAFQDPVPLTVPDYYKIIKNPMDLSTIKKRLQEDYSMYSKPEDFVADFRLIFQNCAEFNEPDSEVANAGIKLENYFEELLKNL
Description: as §3

[3] = target: T2, SMYD2 (Homo sapiens, UniProt Q9NRG4); assay: Methyl transferase scintillation proximity assay; format: biochemical; conditions: average of two measurements; for inhibition at 10 µM: read-out: MTases Inhibition (%)
T2 construct: purchased DiscoverX BROMOscan (bromodomains); SGC in-house methyltransferase panel
Outline: (§1)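 ^3H-SAM + biotinylated substrate, both ~apparent Km per enzyme. Quench: 7.5 M guanidine HCl; dilute in 20 mM Tris pH 8.0; FlashPlate capture 1 h; read CPM. No-compound = 100%, no-enzyme = 0% activity.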

[4] = target: T3, MLL3 (pentameric) (Homo sapiens, UniProt Q8NEZ4); assay: Methyl transferase scintillation proximity assay; format: biochemical; conditions: average of two measurements; for inhibition at 10 µM: read-out: MTases Inhibition (%)
T3 construct: purchased DiscoverX BROMOscan (bromodomains); SGC in-house methyltransferase panel
Outline: as §1

[5] = target: T4, SUV420H2 (Homo sapiens, UniProt Q86Y97); assay: Methyl transferase scintillation proximity assay; format: biochemical; conditions: average of two measurements; for inhibition at 10 µM: read-out: MTases Inhibition (%)
T4 construct: purchased DiscoverX BROMOscan (bromodomains); SGC in-house methyltransferase panel
Outline: as §1

[6] = target: T5, SETD2 (Homo sapiens, UniProt Q9BYW2); assay: Methyl transferase scintillation proximity assay; format: biochemical; conditions: average of two measurements; for inhibition at 10 µM: read-out: MTases Inhibition (%)
T5 construct: purchased DiscoverX BROMOscan (bromodomains); SGC in-house methyltransferase panel
Outline: as §1

[7] = target: T6, DAPK3 (Homo sapiens, UniProt O43293); assay: Temperature shift assay (protein kinases); format: binding; conditions: 10 μM probe; average of three measurements
T6 construct: Recombinant protein domains (bromodomain or kinases) at a concentration of 2 μM
Description: (§2) Temperature shift assays have been described by Fedorov et al.[46]. Recombinant protein domains (bromodomain or kinases) at a concentration of 2 μM in 10 mM HEPES, pH 7.5, and 500 mM NaCl were mixed with 10 μM of chemical probes. Temperature-dependent protein unfolding profiles were measured using a Real-Time PCR Mx3005p machine (Stratagene).

[8] = target: T7, STK3 (Homo sapiens, UniProt Q13188); assay: Temperature shift assay (protein kinases); format: binding; conditions: 10 μM probe; average of three measurements
T7 construct: Recombinant protein domains (bromodomain or kinases) at a concentration of 2 μM
T7 sequence (Q13188 27-278 limits assumed): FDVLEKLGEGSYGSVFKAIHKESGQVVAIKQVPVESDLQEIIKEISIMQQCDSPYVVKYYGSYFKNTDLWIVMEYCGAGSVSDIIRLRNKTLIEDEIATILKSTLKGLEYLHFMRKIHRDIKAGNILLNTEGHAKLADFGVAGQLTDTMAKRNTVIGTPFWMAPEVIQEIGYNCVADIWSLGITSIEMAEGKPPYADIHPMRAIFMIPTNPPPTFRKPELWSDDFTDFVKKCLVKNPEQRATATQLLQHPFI
Description: as §2

[9] = target: T8, PHGK2 (Homo sapiens, UniProt P15735); assay: Temperature shift assay (protein kinases); format: binding; conditions: 10 μM probe; average of three measurements
T8 construct: Recombinant protein domains (bromodomain or kinases) at a concentration of 2 μM
T8 sequence (P15735 24-291 limits assumed): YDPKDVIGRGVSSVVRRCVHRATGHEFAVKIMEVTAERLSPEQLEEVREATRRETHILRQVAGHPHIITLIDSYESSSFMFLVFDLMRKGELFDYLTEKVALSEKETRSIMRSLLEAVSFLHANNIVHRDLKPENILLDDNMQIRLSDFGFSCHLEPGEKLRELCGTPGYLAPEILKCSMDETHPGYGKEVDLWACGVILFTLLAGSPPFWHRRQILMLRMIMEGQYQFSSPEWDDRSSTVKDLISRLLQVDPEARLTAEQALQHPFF
Description: as §2

[10] = target: T9, BMX (Homo sapiens, UniProt P51813); assay: Temperature shift assay (protein kinases); format: binding; conditions: 10 μM probe; average of three measurements
T9 construct: Recombinant protein domains (bromodomain or kinases) at a concentration of 2 μM
Description: as §2

[11] = target: T10, GPRK5 (Homo sapiens, UniProt P34947); assay: Temperature shift assay (protein kinases); format: binding; conditions: 10 μM probe; average of three measurements
T10 construct: Recombinant protein domains (bromodomain or kinases) at a concentration of 2 μM
Description: as §2

[12] = target: T11, PAK4 (Homo sapiens, UniProt O96013); assay: Temperature shift assay (protein kinases); format: binding; conditions: 10 μM probe; average of three measurements
T11 construct: Recombinant protein domains (bromodomain or kinases) at a concentration of 2 μM
Description: as §2

[13] = target: T12, DYRK1A (Homo sapiens, UniProt Q13627); assay: Temperature shift assay (protein kinases); format: binding; conditions: 10 μM probe; average of three measurements
T12 construct: Recombinant protein domains (bromodomain or kinases) at a concentration of 2 μM
Description: as §2

[14] = target: T13, MERTK (Homo sapiens, UniProt Q12866); assay: Temperature shift assay (protein kinases); format: binding; conditions: 10 μM probe; average of three measurements
T13 construct: Recombinant protein domains (bromodomain or kinases) at a concentration of 2 μM
T13 sequence (Q12866 587-858 limits assumed): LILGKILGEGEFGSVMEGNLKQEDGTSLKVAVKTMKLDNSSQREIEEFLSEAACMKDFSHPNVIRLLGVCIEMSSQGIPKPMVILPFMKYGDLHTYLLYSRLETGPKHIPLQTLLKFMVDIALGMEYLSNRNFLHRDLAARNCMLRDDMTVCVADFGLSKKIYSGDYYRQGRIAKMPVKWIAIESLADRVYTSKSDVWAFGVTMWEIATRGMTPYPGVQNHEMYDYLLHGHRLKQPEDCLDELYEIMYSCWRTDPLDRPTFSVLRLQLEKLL
Description: as §2

[15] = target: T14, PIM1 (Homo sapiens, UniProt P11309); assay: Temperature shift assay (protein kinases); format: binding; conditions: 10 μM probe; average of three measurements
T14 construct: Recombinant protein domains (bromodomain or kinases) at a concentration of 2 μM
Description: as §2

[16] = test system: RPS6KA1; assay: Temperature shift assay (protein kinases); format: binding; conditions: 10 μM probe; average of three measurements
Description: as §2

[17] = target: T15, CAMK1G (Homo sapiens, UniProt Q96NX5); assay: Temperature shift assay (protein kinases); format: binding; conditions: 10 μM probe; average of three measurements
T15 construct: Recombinant protein domains (bromodomain or kinases) at a concentration of 2 μM
Description: as §2

[18] = target: T16, GSG2 (Homo sapiens, UniProt Q8TF76); assay: Temperature shift assay (protein kinases); format: binding; conditions: 10 μM probe; average of three measurements
T16 construct: Recombinant protein domains (bromodomain or kinases) at a concentration of 2 μM
T16 sequence (Q8TF76 484-798 limits assumed): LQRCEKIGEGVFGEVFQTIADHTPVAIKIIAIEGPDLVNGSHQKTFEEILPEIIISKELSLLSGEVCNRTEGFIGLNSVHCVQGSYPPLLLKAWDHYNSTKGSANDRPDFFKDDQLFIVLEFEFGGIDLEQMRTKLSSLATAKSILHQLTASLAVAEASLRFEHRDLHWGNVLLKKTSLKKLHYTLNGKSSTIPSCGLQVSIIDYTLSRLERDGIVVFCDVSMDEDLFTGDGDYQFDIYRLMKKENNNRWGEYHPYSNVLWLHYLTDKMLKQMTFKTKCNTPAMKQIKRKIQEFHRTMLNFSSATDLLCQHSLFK
Description: as §2

[19] = target: T17, MAPK8 (Homo sapiens, UniProt P45983); assay: Temperature shift assay (protein kinases); format: binding; conditions: 10 μM probe; average of three measurements
T17 construct: Recombinant protein domains (bromodomain or kinases) at a concentration of 2 μM
Description: as §2

[20] = target: SMARCA2(iso.A) (Homo sapiens, UniProt P51531); assay: BROMOscan ligand-binding assay
Description: as §3

[21] = KD (BROMOscan), sheet prints no unit (nM)

T2 sequence (Q9NRG4 whole entry): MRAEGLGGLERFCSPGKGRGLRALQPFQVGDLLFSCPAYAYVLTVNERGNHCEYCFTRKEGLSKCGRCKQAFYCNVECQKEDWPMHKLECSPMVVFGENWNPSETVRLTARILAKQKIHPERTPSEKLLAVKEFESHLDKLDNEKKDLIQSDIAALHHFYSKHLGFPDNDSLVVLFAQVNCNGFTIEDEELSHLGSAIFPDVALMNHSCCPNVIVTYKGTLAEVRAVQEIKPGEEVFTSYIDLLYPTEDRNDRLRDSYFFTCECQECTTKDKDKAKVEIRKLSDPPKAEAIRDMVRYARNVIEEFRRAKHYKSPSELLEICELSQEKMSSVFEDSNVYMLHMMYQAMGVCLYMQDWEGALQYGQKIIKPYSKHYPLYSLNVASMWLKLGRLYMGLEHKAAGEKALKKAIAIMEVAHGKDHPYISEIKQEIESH
T4 sequence (Q86Y97 whole entry): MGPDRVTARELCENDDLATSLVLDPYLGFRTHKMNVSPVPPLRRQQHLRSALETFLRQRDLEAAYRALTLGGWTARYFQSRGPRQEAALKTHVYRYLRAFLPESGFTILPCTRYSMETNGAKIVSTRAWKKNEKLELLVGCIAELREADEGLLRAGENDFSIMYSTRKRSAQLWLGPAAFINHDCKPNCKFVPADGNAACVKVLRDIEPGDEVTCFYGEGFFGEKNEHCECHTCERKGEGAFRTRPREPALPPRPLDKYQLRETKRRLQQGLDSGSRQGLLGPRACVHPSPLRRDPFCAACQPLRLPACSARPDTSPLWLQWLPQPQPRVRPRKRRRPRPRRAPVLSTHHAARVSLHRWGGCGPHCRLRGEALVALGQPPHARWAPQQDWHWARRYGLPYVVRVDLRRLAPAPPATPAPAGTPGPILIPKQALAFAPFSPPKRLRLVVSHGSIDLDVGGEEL
Chain of SMARCA4 (P51532 1453-1564 limits assumed): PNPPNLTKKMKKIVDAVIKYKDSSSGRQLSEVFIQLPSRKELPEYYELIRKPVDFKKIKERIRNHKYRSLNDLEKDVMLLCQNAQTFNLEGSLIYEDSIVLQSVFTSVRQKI
T5 sequence (Q9BYW2 whole entry): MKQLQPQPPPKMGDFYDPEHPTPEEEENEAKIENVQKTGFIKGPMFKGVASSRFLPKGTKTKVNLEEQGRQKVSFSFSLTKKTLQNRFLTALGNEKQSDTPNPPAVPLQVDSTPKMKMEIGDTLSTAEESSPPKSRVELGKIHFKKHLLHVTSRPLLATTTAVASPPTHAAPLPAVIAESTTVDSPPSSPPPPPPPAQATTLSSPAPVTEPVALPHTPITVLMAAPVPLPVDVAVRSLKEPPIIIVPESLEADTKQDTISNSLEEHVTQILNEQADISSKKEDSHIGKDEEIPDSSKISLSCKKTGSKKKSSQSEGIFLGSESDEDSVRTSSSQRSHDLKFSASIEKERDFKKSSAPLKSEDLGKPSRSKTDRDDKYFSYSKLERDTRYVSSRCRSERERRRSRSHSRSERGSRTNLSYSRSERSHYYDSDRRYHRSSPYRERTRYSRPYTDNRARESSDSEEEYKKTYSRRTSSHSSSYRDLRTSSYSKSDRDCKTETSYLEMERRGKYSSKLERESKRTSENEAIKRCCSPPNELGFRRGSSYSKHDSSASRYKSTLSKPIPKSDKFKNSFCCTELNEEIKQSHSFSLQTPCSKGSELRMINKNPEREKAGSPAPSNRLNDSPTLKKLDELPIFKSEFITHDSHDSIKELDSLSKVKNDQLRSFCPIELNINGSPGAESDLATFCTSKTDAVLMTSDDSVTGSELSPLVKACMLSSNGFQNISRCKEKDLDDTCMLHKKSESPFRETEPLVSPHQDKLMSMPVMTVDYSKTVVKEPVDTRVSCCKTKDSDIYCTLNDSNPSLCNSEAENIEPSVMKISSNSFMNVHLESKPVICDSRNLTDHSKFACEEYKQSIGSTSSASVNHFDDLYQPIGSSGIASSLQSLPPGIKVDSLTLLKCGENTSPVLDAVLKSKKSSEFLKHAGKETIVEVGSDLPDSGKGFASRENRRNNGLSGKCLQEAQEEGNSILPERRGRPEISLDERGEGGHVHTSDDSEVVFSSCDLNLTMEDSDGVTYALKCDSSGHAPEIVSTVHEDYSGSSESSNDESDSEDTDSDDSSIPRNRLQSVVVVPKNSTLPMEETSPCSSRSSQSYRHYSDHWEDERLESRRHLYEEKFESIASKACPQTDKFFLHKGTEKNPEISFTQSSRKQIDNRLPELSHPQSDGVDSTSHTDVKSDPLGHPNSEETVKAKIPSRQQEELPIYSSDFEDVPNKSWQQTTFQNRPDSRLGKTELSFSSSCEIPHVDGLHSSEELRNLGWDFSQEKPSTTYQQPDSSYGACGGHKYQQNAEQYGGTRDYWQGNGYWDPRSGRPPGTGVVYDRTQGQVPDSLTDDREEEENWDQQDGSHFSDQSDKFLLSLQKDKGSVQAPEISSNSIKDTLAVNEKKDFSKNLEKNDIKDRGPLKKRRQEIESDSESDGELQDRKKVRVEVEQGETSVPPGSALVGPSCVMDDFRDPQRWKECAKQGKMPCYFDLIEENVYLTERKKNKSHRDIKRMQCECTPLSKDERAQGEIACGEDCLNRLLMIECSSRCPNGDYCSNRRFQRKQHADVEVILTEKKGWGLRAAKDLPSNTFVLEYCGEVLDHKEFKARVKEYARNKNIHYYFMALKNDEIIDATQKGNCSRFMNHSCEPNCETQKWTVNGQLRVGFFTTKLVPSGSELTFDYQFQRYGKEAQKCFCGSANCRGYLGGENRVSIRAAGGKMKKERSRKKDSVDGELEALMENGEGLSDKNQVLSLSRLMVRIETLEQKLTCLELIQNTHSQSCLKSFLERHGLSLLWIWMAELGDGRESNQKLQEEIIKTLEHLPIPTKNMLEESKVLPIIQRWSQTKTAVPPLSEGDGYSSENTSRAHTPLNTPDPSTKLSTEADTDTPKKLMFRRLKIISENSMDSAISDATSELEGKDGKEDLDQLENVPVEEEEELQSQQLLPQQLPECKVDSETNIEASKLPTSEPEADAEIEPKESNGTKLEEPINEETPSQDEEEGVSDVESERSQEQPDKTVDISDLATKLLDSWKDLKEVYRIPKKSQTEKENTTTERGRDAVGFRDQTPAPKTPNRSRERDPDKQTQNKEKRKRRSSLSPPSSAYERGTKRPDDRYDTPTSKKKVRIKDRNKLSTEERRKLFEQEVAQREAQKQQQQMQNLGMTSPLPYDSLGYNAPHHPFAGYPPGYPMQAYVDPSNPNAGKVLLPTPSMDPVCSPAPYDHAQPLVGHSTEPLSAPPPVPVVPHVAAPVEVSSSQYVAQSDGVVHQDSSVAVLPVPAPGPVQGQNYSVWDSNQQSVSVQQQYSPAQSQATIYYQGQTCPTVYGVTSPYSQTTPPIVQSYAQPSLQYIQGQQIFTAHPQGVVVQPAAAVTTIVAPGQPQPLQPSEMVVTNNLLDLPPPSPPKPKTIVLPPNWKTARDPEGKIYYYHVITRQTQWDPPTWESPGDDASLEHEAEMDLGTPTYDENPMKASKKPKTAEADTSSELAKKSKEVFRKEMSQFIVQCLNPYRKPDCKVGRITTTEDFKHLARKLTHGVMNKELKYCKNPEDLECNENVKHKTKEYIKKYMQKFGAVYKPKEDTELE
Chain of SMARCA2(iso.A) (P51531 1378-1506 limits assumed): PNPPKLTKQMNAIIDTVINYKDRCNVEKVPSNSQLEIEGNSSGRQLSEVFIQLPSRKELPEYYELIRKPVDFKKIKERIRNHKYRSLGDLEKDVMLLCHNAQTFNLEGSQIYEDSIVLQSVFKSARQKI
T15 sequence (Q96NX5 23-277 limits assumed, species assumed): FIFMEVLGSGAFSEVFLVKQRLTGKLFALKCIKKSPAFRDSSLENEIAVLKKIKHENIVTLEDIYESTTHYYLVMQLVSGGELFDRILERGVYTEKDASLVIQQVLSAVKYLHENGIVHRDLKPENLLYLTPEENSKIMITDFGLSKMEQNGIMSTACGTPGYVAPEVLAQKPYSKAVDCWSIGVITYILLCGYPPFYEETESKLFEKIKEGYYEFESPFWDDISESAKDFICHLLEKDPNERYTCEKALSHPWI
T9 sequence (P51813 417-675 limits assumed, species assumed): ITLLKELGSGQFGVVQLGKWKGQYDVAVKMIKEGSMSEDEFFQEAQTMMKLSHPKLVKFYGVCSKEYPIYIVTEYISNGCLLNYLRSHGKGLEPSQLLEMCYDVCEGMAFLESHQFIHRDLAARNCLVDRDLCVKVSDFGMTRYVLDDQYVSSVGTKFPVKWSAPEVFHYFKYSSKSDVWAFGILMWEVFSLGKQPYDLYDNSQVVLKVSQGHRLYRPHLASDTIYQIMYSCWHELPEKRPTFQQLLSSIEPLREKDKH
T17 sequence (P45983 26-321 limits assumed, species assumed): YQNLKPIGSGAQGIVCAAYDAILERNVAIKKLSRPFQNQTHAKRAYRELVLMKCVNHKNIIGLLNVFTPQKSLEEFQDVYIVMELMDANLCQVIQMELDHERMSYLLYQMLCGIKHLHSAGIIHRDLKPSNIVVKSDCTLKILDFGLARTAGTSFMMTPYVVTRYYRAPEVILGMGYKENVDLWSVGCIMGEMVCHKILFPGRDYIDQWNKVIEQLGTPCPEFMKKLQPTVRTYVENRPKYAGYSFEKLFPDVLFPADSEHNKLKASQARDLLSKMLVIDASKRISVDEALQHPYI
T6 sequence (O43293 13-275 limits assumed, species assumed): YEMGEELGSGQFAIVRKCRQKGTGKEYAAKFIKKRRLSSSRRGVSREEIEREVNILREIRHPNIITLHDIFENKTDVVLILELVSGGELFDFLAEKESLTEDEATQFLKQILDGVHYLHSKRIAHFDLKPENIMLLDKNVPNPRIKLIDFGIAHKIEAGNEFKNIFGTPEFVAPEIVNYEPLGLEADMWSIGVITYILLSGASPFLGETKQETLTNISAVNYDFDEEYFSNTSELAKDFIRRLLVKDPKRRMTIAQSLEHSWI

`O=C(C=CN1[C@H]2CC[C@@H]1c1ncnc(NC3CC3)c1C2)c1ccccc1O` [PFI-3 D1] showed a Kd ([1]; BROMOscan) of 0.046 µM and a Kd ([2]; BROMOscan, TRIM24(Bromo.)) greater than 30000 nM.

With `Cc1nnc2c3ccccc3c(N[C@@H](C)[C@H](c3ccccc3)N(C)C)nn12` [L-Moses] the inhibition at 10 µM [3] was -10%, the inhibition at 10 µM [4] was 1% and the inhibition at 10 µM [5] was 6%. The inhibition at 10 µM [6] was 11%, the Temperature shift [7] was 0.2 Kelvin and the Temperature shift [8] was 0.0 Kelvin. The Temperature shift [9] was -0.1 Kelvin, the Temperature shift [10] was -0.1 Kelvin and the Temperature shift [11] was -0.3 Kelvin. It also gave a Temperature shift [12] of -0.3 Kelvin, a Temperature shift [13] of 0.2 Kelvin and a Temperature shift [14] of 0.0 Kelvin. It also gave a Temperature shift [15] of 2.3 Kelvin, a Temperature shift [16] of 0.2 Kelvin and a Temperature shift [17] of -0.3 Kelvin. It also gave a Temperature shift [18] of 0.1 Kelvin and a Temperature shift [19] of 0.6 Kelvin.

For `Cc1cc(=O)n(C)c2cc(N3C(=O)CC[C@H](NS(=O)(=O)CC(C)C)[C@H]3c3ccc(Cl)cc3)ccc12` [LP-99], the Kd ([1]; BROMOscan) was greater than 50 µM and the Kd ([2]; BROMOscan, TRIM24(Bromo.)) was greater than 50000 nM.

In the case of `COc1ccccc1C(=O)Nc1cc2c(cc1N1CCNC[C@H]1C)n(C)c(=O)n2C` [GSK6853], the “MTases Inhibition (%)” value ([3]; 10µM) is reported as -3%, the “MTases Inhibition (%)” value ([4]; 10µM) is reported as 2% and the “MTases Inhibition (%)” value ([5]; 10µM) is reported as -2%. For the same compound, the “MTases Inhibition (%)” value ([6]; 10µM) was 1%.

`COc1cc2c(cc1NS(=O)(=O)c1ccc(Br)cc1C)n(C)c(=O)n2C` [OF-1] gave a Kd [1] of 16 µM and a Kd ([2]; TRIM24(Bromo.)) of 1900 nM.

In the case of `Cc1c(NC(=O)c2cc(C(N)=O)nc3cc(F)ccc23)c(C(F)(F)F)nn1Cc1ccc(C#N)cc1` [BAY-876], the inhibition at 10 µM [3] is reported as -10%, the inhibition at 10 µM [4] is reported as 0% and the inhibition at 10 µM [5] is reported as -1%. The inhibition at 10 µM [6] was -4%.

`COc1ccc(CCc2nc3cc(-c4c(C)noc4C)ccc3n2C[C@H](C)N2CCOCC2)cc1Cl` [SGC-CBP30] gave a Kd [20, 21] greater than 30000 nM, a Kd ([20]; KD, BROMOscan, SMARCA2(iso.A)) greater than 100000 nM and a Kd ([2]; KD, BROMOscan, TRIM24(Bromo.)) of 12000 nM.

`CO[C@H]1CNC[C@@H](OCC2CCC(F)(F)CC2)[C@@H]1Nc1ncc(-c2cncc(C)c2)c2cc(C)c(=O)[nH]c12` [GSK8814] gave an inhibition at 10 µM [3] of -2%, an inhibition at 10 µM [4] of 0% and an inhibition at 10 µM [5] of 0%. It also gave an inhibition at 10 µM [6] of 7%.

`O=C(C=CN1CC2CC1CN2c1ccccn1)c1ccccc1O` (centres unmarked) [PFI-3] gave a Kd [2, 21] greater than 30000 nM and a Kd ([2]; KD, TRIM24(Bromo.)) greater than 100000 nM.

For `Cc1c(NC(=O)c2cc(C(N)=O)nc3cc(F)ccc23)c(C(F)(F)F)nn1Cc1ccc(C(C)(C)C)cc1` [BAY-588], the inhibition at 10 µM [3] was 8%, the inhibition at 10 µM [4] was 7% and the inhibition at 10 µM [5] was -3%. The inhibition at 10 µM [6] was 0%.
